Assay: molar heat capacity at constant volume; wn = mass fraction of the nth substance listed
Conditions: Fluid (supercritical or subcritical phases), Vacuum adiabatic calorimetry, w1 = 0.5001

FC(F)C(F)(F)F [pentafluoroethane] + FCF
Conditions | molar heat capacity at constant volume [J/K/mol]
348 K, 6505 kPa | 75.76
348 K, 9225 kPa | 72.31
348 K, 14528 kPa | 69.08
349 K, 5380 kPa | 96.64
349 K, 6732 kPa | 76.89
349 K, 9535 kPa | 72.88
349 K, 14929 kPa | 70.2
350 K, 5486 kPa | 95.02
350 K, 5543 kPa | 91.24
350 K, 5720 kPa | 84.88
350 K, 6957 kPa | 76.37
350 K, 9844 kPa | 72.65
350 K, 15331 kPa | 69.99
351 K, 5591 kPa | 91.71
351 K, 5661 kPa | 90.24
351 K, 5866 kPa | 81.35
351 K, 7184 kPa | 75.16
351 K, 10153 kPa | 72.45
351 K, 15729 kPa | 68.92
352 K, 5697 kPa | 89.08
352 K, 5778 kPa | 87.68
352 K, 5877 kPa | 87.6
352 K, 6013 kPa | 80.15
352 K, 7411 kPa | 74.15
352 K, 10462 kPa | 72.57
352 K, 16128 kPa | 68.79
353 K, 5802 kPa | 88.36
353 K, 5898 kPa | 87.13
353 K, 6010 kPa | 87.42
353 K, 6163 kPa | 80.29
353 K, 7640 kPa | 75.09
353 K, 10771 kPa | 72.4
353 K, 16529 kPa | 69.17
354 K, 5907 kPa | 87.38
354 K, 6017 kPa | 86.01
354 K, 6144 kPa | 86.89
354 K, 6312 kPa | 80.47
354 K, 7867 kPa | 74.78
354 K, 11082 kPa | 72.54
354 K, 16929 kPa | 68.92
355 K, 6013 kPa | 85.59
355 K, 6136 kPa | 84.29
355 K, 6277 kPa | 85.22
355 K, 6460 kPa | 78.25
355 K, 8099 kPa | 73.81
355 K, 11393 kPa | 71.62
355 K, 17330 kPa | 68.05
356 K, 6119 kPa | 85.68
356 K, 6256 kPa | 84
356 K, 6409 kPa | 84.29
356 K, 6610 kPa | 77.58
356 K, 8331 kPa | 73.96
356 K, 11703 kPa | 71.68
356 K, 17728 kPa | 68.48
357 K, 6227 kPa | 86.16
357 K, 6375 kPa | 83.21
357 K, 6544 kPa | 84.6
357 K, 6762 kPa | 78.59
357 K, 8563 kPa | 73.79
357 K, 12015 kPa | 72.2
357 K, 18129 kPa | 68.93
358 K, 6332 kPa | 84.37
358 K, 6496 kPa | 82.34
358 K, 6679 kPa | 84.32
358 K, 6913 kPa | 78.26
358 K, 8795 kPa | 73.5
358 K, 12328 kPa | 72.12
358 K, 18529 kPa | 68.62
359 K, 6438 kPa | 82.91
359 K, 6616 kPa | 81.68
359 K, 6814 kPa | 82.54
359 K, 7064 kPa | 76.43
359 K, 9028 kPa | 72.9
359 K, 12639 kPa | 71.57
359 K, 18928 kPa | 68.27
360 K, 6544 kPa | 82.44
360 K, 6737 kPa | 80.97
360 K, 6948 kPa | 82
360 K, 7219 kPa | 76.78
360 K, 9258 kPa | 72.64
360 K, 12952 kPa | 70.73
361 K, 6650 kPa | 82.84
361 K, 6858 kPa | 80.53
361 K, 7085 kPa | 81.72
361 K, 7368 kPa | 77.24
361 K, 9493 kPa | 73.35
361 K, 13265 kPa | 71.22
362 K, 6758 kPa | 82.74
362 K, 6980 kPa | 80.56
362 K, 7222 kPa | 81.91
362 K, 7523 kPa | 75.41
362 K, 9726 kPa | 73.82
362 K, 13581 kPa | 70.53
363 K, 6864 kPa | 81.25
363 K, 7101 kPa | 80.13
363 K, 7357 kPa | 81.64
363 K, 7676 kPa | 75.63
363 K, 9958 kPa | 73.52
